Test results as given in a melting point compilation (Tetko et al.; mined from patent text by program, amines drawn as free bases though some values may be those of a salt).

SMILES | melting point [°C]
CN(C(=O)Oc1ccc([N+](=O)[O-])cc1)c1ccc(-c2ncn(-c3ccc(OC(F)(F)F)cc3)n2)cc1 | 145 to 147
CCOP(=O)(CC(=O)NNc1nc2ccc(C(F)(F)F)cc2n(O)c1=O)OCC | 193 to 196
Cc1cc(C)c2c(c1)-c1cc(Br)c(C)cc1P(=O)(O)O2 | 260
COc1ccc(C(=O)Nc2ccccc2Nc2ccccc2)cc1 | 148 to 150
CCCOc1ccccc1-c1nc(O)cc(C#N)n1 | 135 to 136
O=[N+]([O-])c1ccc(Br)cc1-c1cc(-c2cccc(Br)c2)no1 | 179 to 180
C=Cc1cnc2c(NC(=O)c3c(Cl)cccc3Cl)cccc2c1CCl | 184 to 186
CC(C)(C)c1cn2cccc(C=O)c2n1 | 60 to 62
CN(Cc1ccccc1)c1nc(N)nc(-c2cc(Cl)ccc2Cl)n1 | 163 to 164
CCCCCc1cc2c(nc(O)n2[C@@H](C)c2ccccc2)c(N)n1 | 147 to 148
CCc1nc(-c2cc3[nH]c(=O)c(=O)[nH]c3cc2[N+](=O)[O-])c[nH]1 | 249 to 250
CCCc1nc(C)n2[nH]c(=O)nc2c1Br | 221
O=[N+]([O-])c1cccc(S(=O)(=O)C(CCl)Sc2ccccc2)c1 (configuration not stated) | 126
CC1(C)[C@@]2(C)CC[C@]1(NCC(=O)N1CCC[C@H]1C#N)C(=O)OC2 | 174 to 177
COc1cc(C#N)ccc1C=O | 112 to 114
Cc1cccc(NC(=O)NCC(=O)N(CC(=O)NCc2ccccc2)c2ccccc2)c1 | 204
Fc1ccc(-c2nc(-c3ccccn3)cs2)cc1 | 140 to 144
c1nc(Cc2ccc3c(c2)COCO3)c[nH]1 | 145
COc1ccc(NC(=O)c2ccc(C(C)(C)CN)cc2)cc1 | 139 to 140
CN1CCCC1Cc1ccc(N)cc1 (configuration not stated) | 59 to 61
Cc1ccc(-c2ccc(N3CCCN(c4ccc(-c5ccc(C)cc5)cn4)CC3)nc2)cc1 | 245 to 247
OCc1cccc2nc(N3CCCCC3)sc12 | 107 to 108
CN1Cc2nc3ccccc3c(=O)n2-c2ccccc2C1=O | 204 to 206
CCCCNC(=O)C(C)CC(O)C1C[C@H](C)CCCCCCNc2cc(cc(OC)n2)C(=O)N1 (some centres not stated) | 178 to 182
Oc1ccc(-c2cocn2)cc1 | 148
O=C1c2ccccc2C(=O)N1CC(=O)N1c2ccccc2N(CCc2ccccc2)C(=O)[C@H]2CCC[C@H]21 (relative stereo) | 178 to 179
c1ccc(CN2CC3Cc4ccccc4OC3C2)cc1 (configuration not stated) | 68 to 70

More lines, now with the values ahead:

melting point [°C] | SMILES
132 to 134 | C=CCn1c(=O)c(C(=O)OCC)c(N)c2ccccc21
144 to 147 | O=C(Cc1ccc(F)cc1)NC1CCN(Cc2ccc(Cl)c(Cl)c2)CC1
99 to 100 | CCC1(c2cccs2)OCC(=O)Nc2ccc(-c3coc(C#N)c3)cc21 (configuration not stated)
230 | O=C1c2ccccc2C(=O)c2oc(-c3cccc(F)c3)nc21
124 to 125 | CCOc1ccc(C2=NN(C(=O)c3cccnc3)CC2)cc1
228 to 230 | O=C1OC(=O)c2cc(N3C(=O)CCC3=O)ccc21
39 to 41 | CCC1=C(O)C(=O)CC1
115 to 117 | COc1ccc2c(c1)C(C(=O)N(Cc1ccc(N)cc1)c1ccc(C(C)C)cc1)CCC2 (configuration not stated)
147 to 149 | OC(CNCCNc1ccc(Cl)nn1)COc1ccccc1 (configuration not stated)
234 to 236 | NC(=O)c1c(N)n[nH]c1N1CCN(Cc2ccccc2)CC1
230 to 232 | COc1cc2cc3c(=O)[nH]cnc3cc2cc1OCCN1CCOCC1
144 | CC(CCCCCc1nc(-c2ccc(Cl)cc2)c(-c2ccc(Cl)cc2)o1)c1nnn[nH]1 (racemic)
144 to 146 | CCn1c2ccccc2c2c3c(ccc21)c(C=O)cn3C
108 to 110 | CC1(COCC(COCC2(C)COC2)(COCC2(C)COC2)COCC2(C)COC2)COC1
60 to 61 | CCCNC(=O)NCC1CCCCC1
